Here are results for seven compounds from PubChem BioAssay (NCI).

Holding throughout (test): NCI tumour cell line growth inhibition, 48 h
Assay [1] deals with SF-268 CNS.
Assay [2] relates to UACC-257 melanoma.
Assay [3] relates to BT-549 breast.
For assay [4], the system named is SR leukemia.
For assay [5], the system named is SK-OV-3 ovarian.
For assay [6], the system named is SNB-75 CNS.
The test system of assay [7] is TK-10 renal.
Assay [8] has as its system HCT-15 colon.
Assay [9] relates to HT29 colon.
In assay [10] the test system is HCC-2998 colon.

Where “and” joins values, the source holds several entries; their conditions need not be identical. Identical values can stand only once.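 Cultured in 96-well plates, cells were exposed to test compound for 48 hours across five concentrations. Abbreviation: GI50, concentration required for 50% inhibition of growth. TGI: concentration producing complete growth inhibition.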

As to `COC([CH2][Hg][n]1cnc2c1c(=O)n(C)c(=O)n2C)CN1C(=O)c2ccccc2S1(=O)=O` (stereo unspecified), the GI50 in [1] was above 100 µM; in [2] it was above 100 µM; in assay [3] it was above 100 µM; in assay [4], 77.2 µM; in [5], above 100 µM; in assay [6], above 100 µM. Further, the GI50 in assay [7], in assay [8], in [9] and in assay [10] was above 100 µM throughout. Further, the TGI in [1], in assay [2], in assay [3], in [4], in [5] and in [6] was above 100 µM each time. In addition, the TGI in assay [7], in assay [8], in assay [9] and in [10] was above 100 µM throughout.
As to `CCN1/C(=C\c2cc[n+](CC)c3ccccc23)C=Cc2ccccc21`, the GI50 in [1] is 0.291 µM; in assay [2], 0.135 µM; in assay [3] it was 0.0811 µM; in assay [4], 0.152 µM; in assay [5], 0.236 µM; in assay [6] it was 0.169 µM. Moreover, the GI50 is 0.448 µM in assay [7], 2.84 µM in [8], 0.202 µM in [9] and 0.141 µM in assay [10]. The TGI amounted to 13.2 µM in assay [1]; 2.36 µM in assay [2]; 1.5 µM in assay [3]; 4.86 µM in assay [4]; 11.4 µM in assay [5]; 0.871 µM in [6]. For the same compound, the TGI in assay [7] was found to be 13.7 µM; in assay [8], 13.3 µM; in assay [9], 10.8 µM; in [10], 2.61 µM.
With `O=C(Nc1ccccc1)c1c(O)[nH]c(=S)[nH]c1=O`, the TGI in assay [1] was 125 µM; in assay [2] it was 112 µM and > 250 µM; in assay [3], 72 µM; in [4], 53.8 µM; in assay [5], 122 µM; in [6], 91.9 µM. Moreover, the TGI is 125 µM in assay [7]; 72.2 µM and > 250 µM in [8]; 125 µM and > 250 µM in assay [9]; 120 µM and > 250 µM in [10]. In addition, the GI50 was 83.1 µM in assay [2], 84.3 µM in assay [8], 93.5 µM in assay [9] and 95.3 µM in assay [10].
For `CN1CCCCC1CCN1c2ccccc2Sc2ccc(Cl)cc21` (stereo unspecified), the GI50 in [1] is 2.99 µM; in [2] it was 2.45 µM; in [3], 10.4 µM; in [4], 3.2 µM; in [5], 3.69 µM; in assay [6], 1.54 µM. Also, the GI50 in assay [7] is 2.27 µM; in assay [8], 2.93 µM; in assay [9] it was 3.17 µM; in [10] it was 2.5 µM. Besides, the TGI worked out at 8.85 µM in [1]; 5.52 µM in [2]; 23.3 µM in [3]; 13.7 µM in [5]; 6.19 µM in assay [6]; 7.09 µM in assay [7]. Further, the TGI in assay [8] worked out at 11.7 µM; in assay [9], 11.1 µM; in [10], 5.85 µM.
Regarding `Cc1ccc2c(C)c3c(ccc4ccccc43)c[n+]2c1`, the GI50 was 2.87 µM in [1]; 10.4 µM in assay [2]; 3.57 µM in [3]; 3.75 µM in assay [4]; 18.6 µM in assay [5]; 11.9 µM in assay [6]. In addition, the GI50 in assay [7] is 68.3 µM; in assay [8], 77.7 µM; in [9], 33.5 µM; in [10], 8.06 µM. In addition, the TGI stood at 15.9 µM in assay [1]; 77.1 µM in [2]; 16.6 µM in assay [3]; 22.9 µM in [4]; 57.2 µM in assay [5]; 40.3 µM in assay [6]. The TGI in [7] was above 100 µM; in assay [8], above 100 µM; in assay [9], above 100 µM; in assay [10], 25.5 µM.
As to `C[C@@H](Oc1cc(-n2cnc3ccc(CN4CCN(C)CC4)cc32)sc1C(N)=O)c1ccccc1C(F)(F)F`, the GI50 in [1] is 0.0293 µM and 0.0667 µM; in assay [2] it was 2.03 µM; in [3], 0.0746 µM and 0.139 µM; in assay [4], < 0.01 µM and 0.00514 µM; in assay [5], 0.025 µM and 0.0673 µM; in assay [6], 0.0363 µM and 0.0249 µM. Besides, the GI50 in assay [7] is 2.69 µM and 1.46 µM; in [8], 0.045 µM and 0.0432 µM; in assay [9], < 0.01 µM and 0.00402 µM; in assay [10], < 0.0161 µM and 0.0397 µM. The TGI in [1] was 16.3 µM and > 10 µM; in assay [2] it was above 10 µM; in assay [3], 15.2 µM and > 10 µM; in [4] it was 1.75 µM and 1.44 µM; in assay [5], 1.67 µM and > 10 µM; in assay [7], 17.3 µM and > 10 µM. Further, the TGI is 12.9 µM and > 10 µM in assay [8]; 6.51 µM and > 10 µM in [9].
In the case of `Nc1c(C(=O)c2cccc(CCS(N)(=O)=O)c2)cnn1-c1ccc(F)cc1`, the GI50 in assay [1], in assay [2], in assay [3], in [4], in assay [5] and in [6] was above 25 µM each time. The GI50 in assay [7], in [8], in assay [9] and in assay [10] was above 25 µM each time. Also, the TGI in [1], in [2], in assay [3], in assay [4], in [5] and in [6] was above 25 µM throughout. Moreover, the TGI in assay [7], in [8], in assay [9] and in [10] was above 25 µM throughout.
